Laboratory results taken from a melting point compilation (Tetko et al.; mined from patent text by program, amines drawn as free bases though some values may be those of a salt).

Point of comparison: FC(F)(F)c1n[nH]c2ccccc12, melting point 104 °C. Against it:
- Oc1cc2ccc(Cc3ccccc3)cc2cc1O — higher, 177 to 187 °C
- O=C(O)C(c1ccccc1)C1CCN(c2ccc([N+](=O)[O-])cc2)CC1 (stereo not drawn) — higher, 216 °C
- COC(=O)c1ccc(OC)c2cc(OC)ccc12 — not separable, 102 to 104 °C
- Cc1nc(N2CCCC(CO)C2)c2nc(-c3ccccc3)cc-2[nH]1 (stereo not drawn) — higher, 255 to 256 °C
- CC(C)CSc1cc(C(=O)O)cc(S(N)(=O)=O)c1Oc1ccccc1 — higher, 193 to 194 °C
- Cc1nc(C(C)O)c[nH]1 (stereo not drawn) — higher, 107 to 111 °C
- NS(=O)(=O)Oc1cccc(Cl)c1 — lower, 82 to 83 °C
- COc1cc2c(cc1OC)C(C)(CCCCl)OCC2 (stereo not drawn) — lower, 77 to 79 °C
- CCc1ccc(OCCCCCCN2CCN(c3nccs3)CC2)cc1 — lower, 21 to 23 °C
- CCOC(=O)c1ccc([N+](=O)[O-])c(O)c1 — lower, 80 to 81 °C
- CCOC(=O)CC(NC(=O)c1ccc(Cl)cc1)C(=O)c1ccsc1 (stereo not drawn) — higher, 106 to 108 °C
- CNC(=NS(C)(=O)=O)SC — lower, 88 to 91 °C
- N#Cc1nn(-c2c(Cl)cc(C(F)(F)F)cc2Cl)c(N)c1-c1ccc(Br)cc1 — higher, 242 to 244 °C
- Cc1c(C)c2c(c(C)c1O)SC(CCCI)O2 (stereo not drawn) — lower, 72 to 75 °C
- CCN(CC)CCNC(=O)c1cc(I)cc2c(Cl)ccnc12 — lower, 76 to 78 °C
- COc1cc2ccc(-c3ccccc3)cc2cc1SC — higher, 124 to 125 °C
- CC1=NC(C)(C)SC1=NO — higher, 159 to 161 °C
- Nc1ccc(Oc2ccc(O)cc2)cc1 — higher, 130 to 134 °C
- COc1cc2c(cn1)CC(CC(=O)O)C=C2 (stereo not drawn) — higher, 151 to 152 °C
- Clc1ccc(C2C3=C(CCS3)NC3=C2SCC3)cc1Cl — higher, > 260 °C
- CC1(C)C(=O)Nc2ccc(-c3cccc(C#N)c3F)cc21 — higher, 231 to 232 °C
- Oc1ccc(-c2[nH]c3ccccc3c2Cn2ccnc2)cc1 — higher, 245 to 247 °C
- CSc1sc(-c2cccnc2)c2c1C(=O)C(=CO)C(C)(C)C2 — higher, 154 to 156 °C
- CCc1cccc(-c2nc(=O)c3ccccc3s2)n1 — higher, 150 to 151 °C
- CNC(COc1ccc(C2C(=O)Oc3c2cc(C(C)(C)C)cc3C(C)(C)C)cc1)C(=O)O (stereo not drawn) — higher, 115 to 121 °C
- Cn1nc(C(F)(F)F)cc1Oc1cc(Oc2cc(C(F)(F)F)nn2C)nc(Oc2cc(C(F)(F)F)nn2C)c1 — higher, 130 °C
- COc1ccc(N2CCN(c3ncc(-n4cn[nH]c4=O)cn3)CC2)cc1 — higher, 272 °C
- CCOC(=O)C(C)c1ccc2cc(O)ccc2c1 (stereo not drawn) — lower, 93 to 98 °C
- CC(C)CN1C(=O)N(C)C2(NC(=O)NC2=O)c2ccccc21 (stereo not drawn) — higher, 270 °C
- Nc1ncnc2c1c(-c1ccc(Oc3ccc(F)cc3)cc1)cn2C1CCOC1 (stereo not drawn) — higher, 198 to 199 °C
- Cc1ccc(C(O)(c2ccc(C)cc2)C2CCN(Cc3ccccc3)CC2)cc1 — higher, 115 to 117 °C
- Cc1cn(COCCOC(=O)c2ccccc2)c(=O)[nH]c1=O — lower, 94 to 99 °C
- CC(=O)c1c(Sc2cc(Cl)cc(Cl)c2)[nH]c2ccc(Cl)cc12 — higher, 180 to 185 °C
- CC12CCC(=O)C=C1CCC1C2CCC2(C)C1CCC2(O)C(=O)CCl (stereo not drawn) — higher, 239 °C
- CCN(CC)c1c([N+](=O)[O-])cc(C(F)(F)F)c(N2CCCC2=O)c1[N+](=O)[O-] — lower, 94 to 95 °C
- Cc1cc(C(C)NC(=O)NO)c(C)s1 (stereo not drawn) — higher, 124 to 126 °C
- CCOC(=O)c1cnc2sc(Br)c(C)c2c1O — higher, 214 to 216 °C
- O=C(O)Cc1cc(C(=O)c2cccc(C(=O)O)c2)ccc1O — higher, > 260 °C
- Cc1ccc(-n2cnnc2C(F)(F)F)c(C)c1 — lower, 77 °C
- CN1Cc2c(Cl)ccc3scc(c23)S1(=O)=O — higher, 196 °C
- CNc1cc(F)c(C#N)cc1F — higher, 160 to 163 °C
- Cc1cccc(NC(=O)NC2N=C(c3ccccc3F)c3ccccc3N(Cc3ncccc3C(N)=O)C2=O)c1 (racemic) — higher, 203 °C
- Cc1c2c(c(Cl)n1C)NC(=O)CN=C2c1ccccc1 — higher, 195 °C
- O=c1[nH]c2cc(F)c(F)cc2c(=O)n1OCc1ccccc1 — higher, > 250 °C
- CCCCCCCC[C@H](C)C(=O)Oc1ccc(C(=O)O)cc1 — lower, 92.5 to 96.5 °C
- Cc1cc(OC(=O)c2ccc(Cl)c(OCCn3cnnn3)c2Cl)n(C)n1 — higher, 138 to 140 °C
- O=C(O)c1c(Cl)ccc2c1OCCO2 — higher, 162 °C
- FC(F)(F)c1cccc(-c2ccnc3ccnn23)c1 — not separable, 103 to 104 °C
- CN(C)Cc1ccc(CSCCNc2nc(C(O)c3ccccc3)nn2C)o1 (stereo not drawn) — higher, 121 to 122 °C
- COc1cc(OC)c(OC)cc1CN1CCc2cc(OCc3ccccc3)c(OC)cc2C1 — higher, 110 to 111 °C
- COc1cccc2c1sn1c3ccccc3c(=O)cc21 — higher, 245 to 251 °C
- O=C(Nc1ccc2c(c1)NCCC2)c1cc2cc(F)ccc2n1Cc1cccc(F)c1 — higher, 149 to 151 °C
